# Results from US9192672B2, “Zwitterion solution for low-volume therapeutic delivery” (Wayne State University Board of Governors, priority 2007, dated 2015).
# Key:
# [1] = physchem; settings: aqueous buffer, thermodynamic from solid
# [2] = Solubility in artificial cerebrospinal fluid (aCSF); settings: Table 2, artificial CSF
# [3] = Solubility in saline; format: physicochemical; settings: for solubility: saline, saline or isotonic
# [4] = physchem; settings: saline or isotonic, thermodynamic from solid
# [5] = cited from earlier work
# [6] = artificial cerebrospinal fluid (aCSF)
SMILES,solubility [1],solubility ([1]; MPI solution or aCSF),Solubility In Artificial CSF [2],"solubility ([3]; Table 2, saline)",other results
"NC1C2CN(c3nc4c(cc3F)c(=O)c(C(=O)O)cn4-c3ccc(F)cc3F)CC12 (stereo not shown) [7-(6-amino-3-aza-bicyclo[3.1.0]hex-3-yl)-1-(2,4-difluoro-phenyl)-6-fluoro-4-oxo-1,4-dihydro-[1,8]naphthyridine-3-carboxylic acid]",> 205 µg/mL,–,–,–,–
CC(Cc1ccc(OCC(=O)O)cc1)NCC(O)c1csc(C(F)(F)F)n1 (stereo not shown) [(4-{2-[2-hydroxy-2-(2-trifluoromethyl-thiazol-4-yl)-ethylamino]-propyl}-phenoxy)-acetic acid],> 205 µg/mL,–,–,–,–
"CCOC(=O)C1=C(COCCNC(=O)/C=C\C(=O)O)NC(C)=C(C(=O)OC)C1c1ccccc1Cl (stereo not shown) [(Z)-4-[(2-{[4-(2-chlorophenyl)-3-(ethoxycarbonyl)-5-(methoxycarbonyl)-6-methyl-1,4-dihydro-2-pyridinyl]methoxy}ethyl)amino]-4-oxo-2-butenoic acid]",–,> 205 µg/mL,–,–,–
NCC(CC(=O)O)c1ccc(Cl)cc1 (stereo not shown) [baclofen],–,–,–,–,"Concentration achieved in aCSF ([5]; differing forms of aCSF, earlier in vivo studies): less than 0.21 mg/ml; Solubility in aqueous saline solution ([5]; extreme heating at 100° Celsius, sonication, high speed stirring, US 2006/0009523): ≤ 12 mg/mL; Concentration by back titration method ([5]; initial dissolution in acid pH below 3.87, then base, US 2006/0009523): ~10 mg/mL"
CO/N=C(\C(=O)N[C@@H]1C(=O)N2C(C(=O)[O-])=C(C[N+]3(C)CCCC3)CS[C@H]12)c1csc(N)n1 [cefepime],> 205 µg/mL,–,–,66 µg/mL,solubility [4]: > 78 µg/mL
CC(=O)OCC1=C(C(=O)O)N2C(=O)[C@@H](NC(=O)CSc3ccncc3)[C@H]2SC1 [cephaprine],–,–,>1200 µg/mL,–,"Solubility In Saline ([3]; Table 2, saline): 1000 µg/mL"

# Further lines, with some results ahead:
solubility [1],solubility ([1]; MPI solution or aCSF),Solubility In Artificial CSF [2],"solubility ([3]; Table 2, saline)",SMILES,other results
–,> 205 µg/mL,>250 µg/mL,205 µg/mL,"CO/N=C(\C(=O)N[C@@H]1C(=O)N2C(C(=O)O)=C(CSc3nc(=O)c(=O)[nH]n3C)CS[C@H]12)c1csc(N)n1 [Ceftriaxone, ceftriaxone]","solubility ([1]; multivalent physiologic ion (MPI) solution): ≥ 700 µg/mL; solubility ([3]; Table 1, saline): 205 µg/mL; solubility ([3]; text of Examples 8-14): 205 µg/mL; solubility [4, 6]: > 250 µg/mL"
> 205 µg/mL,–,–,–,C=CC1=C(C(=O)O)N2C(=O)[C@@H](NC(=O)/C(=N\O)c3csc(N)n3)[C@H]2SC1 [cefdinir],–
–,> 205 µg/mL,>80 µg/mL,55 µg/mL,C=CC1=C(C(=O)O)N2C(=O)[C@@H](NC(=O)/C(=N\OCC(=O)O)c3csc(N)n3)[C@H]2SC1 [cefixime],"Solubility In Saline ([3]; Table 2, saline): 68 µg/mL; solubility [4, 6]: > 72 µg/mL"
> 205 µg/mL,–,–,–,COCC1=C(C(=O)O)N2C(=O)[C@@H](NC(=O)/C(=N\OC)c3csc(N)n3)[C@H]2SC1 [cefpodoxime],–
